According to patent publication US8852554B2, “Radiolabelled PDE10 ligands” (Janssen Pharmaceutica NV, priority 2009, dated 2014):
Counter-ions that a name gives are not always drawn.

Key:
[1] = target: T1, Rat recombinant PDE10A (rPDE10A) (Rattus norvegicus, UniProt Q9QYJ6); assay: rat PDE10A2-cAMP inhibition, in vitro SPA assay; format: biochemical; conditions: 60 nM cAMP substrate
T1 construct: made in house; host or cells: Sf9 insect cells (baculovirus)
T1 sequence (Q9QYJ6 1-794): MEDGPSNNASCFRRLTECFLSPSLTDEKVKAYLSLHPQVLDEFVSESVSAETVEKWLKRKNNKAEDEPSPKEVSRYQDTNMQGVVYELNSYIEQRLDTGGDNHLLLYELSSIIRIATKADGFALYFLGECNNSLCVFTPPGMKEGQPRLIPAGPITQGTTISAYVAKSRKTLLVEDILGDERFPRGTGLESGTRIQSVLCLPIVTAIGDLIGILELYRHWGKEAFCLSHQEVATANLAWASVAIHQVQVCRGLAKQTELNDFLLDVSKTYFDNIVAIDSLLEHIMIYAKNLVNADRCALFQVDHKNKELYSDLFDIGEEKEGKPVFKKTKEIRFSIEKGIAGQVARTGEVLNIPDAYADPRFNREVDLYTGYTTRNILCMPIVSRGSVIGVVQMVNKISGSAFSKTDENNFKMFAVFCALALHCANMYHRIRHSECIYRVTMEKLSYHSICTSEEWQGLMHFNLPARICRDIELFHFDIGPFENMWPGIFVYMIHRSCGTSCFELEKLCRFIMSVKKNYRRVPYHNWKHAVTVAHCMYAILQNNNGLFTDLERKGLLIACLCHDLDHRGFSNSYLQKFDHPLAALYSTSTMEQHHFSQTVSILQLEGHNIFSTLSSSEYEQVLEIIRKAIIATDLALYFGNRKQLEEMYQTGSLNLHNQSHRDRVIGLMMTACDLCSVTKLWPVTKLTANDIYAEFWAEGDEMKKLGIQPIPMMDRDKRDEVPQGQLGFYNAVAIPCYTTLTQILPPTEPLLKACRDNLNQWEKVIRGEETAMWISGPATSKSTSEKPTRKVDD
Method: Rat recombinant PDE10A (rPDE10A) was expressed in Sf9 cells using a recombinant rPDE10A baculovirus construct. Cells were harvested after 48 h of infection and the rPDE10A protein was purified by metal chelate chromatography on Ni-sepharose 6FF. Tested compounds were dissolved and diluted in 100% DMSO to a concentration 100 fold of the final concentration in the assay. Compound dilutions (0.4 μl) were added in 384 well plates to 20 μl of incubation buffer (50 mM Tris pH 7.8, 8.3 mM MgCl2, 1.7 mM EGTA). 10 μl of rPDE10A enzyme in incubation buffer was added and the reaction was started by addition of 10 μl substrate to a final concentration of 60 nM cAMP and 0.008 μCi 3H-cAMP. The reaction was incubated for 60 minutes at room temperature. […] After sedimentation of the beads during 30 minutes, the radioactivity was measured in a Perkin Elmer Topcount scintillation counter and results were expressed as cpm. For blanc values the enzyme was omitted from the reaction and replaced by incubation buffer. Control values were obtained by addition of a final concentration of 1% DMSO instead of compound.

PDE10A = target: T2, PDE10A (Rattus norvegicus, UniProt Q9QYJ6); assay: MicroPET imaging studies; format: in vivo, male Wistar rats; conditions: simplified reference tissue model, cerebellum as reference
T2 construct: from tissue; host or cells: brain (striatum) of living male Wistar rats, in vivo microPET
T2 sequence (Q9QYJ6 1-794): T1 sequence (Q9QYJ6 1-794)
Method: Imaging experiments were performed on a Focus™ 220 microPET scanner (Concorde Microsystems, Knoxville, Tenn., USA) using male Wistar rats with body weight varying between 300 and 600 g. […] Dynamic scans of 120 min were acquired in list mode. After reconstruction of the images, they were semi-automatically co-registered with a [^11C]raclopride template of the rat brain, and volumes of interest (VOIs) were generated for different anatomical brain structures (striatum, cerebral cortex and cerebellum) from which time-activity curves (TAC) were constructed for each individual image, using PMOD software (PMOD Technologies Ltd.). Normalization for body weight of the animal and injected dose was done. The radioactivity concentration in the different brain regions was expressed as SUV (standardized uptake value) as a function of time in seconds post injection of the radiotracer. The parametric binding potential (BP) values were calculated for all acquired images by using a simplified reference tissue model where the TAC of the cerebellum was used as input TAC for non-specific binding, using the same software (PMOD).
The radioactivity concentration in the different brain regions was expressed as SUV value as a function of time p.i. of the radiotracer by normalization for body weight of the animal and injected dose.

melting point	IC50 [1]	BP (binding potential) at baseline (PDE10A)	SMILES
178.95 °C	–	–	COc1cccnc1COc1ccc(-c2nn(CCF)cc2-c2ccncc2)cc1 (as salt: succinate) [Compound B16, 2-[[4-[1-(2-fluoroethyl)-4-(4-pyridinyl)-1H-pyrazol-3-yl]phenoxy]methyl]-3-methoxy-pyridine.succinate]
119.65 °C	–	–	CCOc1cccc(COc2ccc(-c3nn(CCF)cc3-c3ccncc3)cc2)n1 (as salt: succinate) [Compound B25, 2-ethoxy-6-[[4-[1-(2-fluoroethyl)-4-(4-pyridinyl)-1H-pyrazol-3-yl]phenoxy]methyl]-pyridine.succinate]
117.52 °C	3.31 nM	–	COc1ccc(COc2ccc(-c3nn(CCF)cc3-c3ccncc3)cc2)nc1 [Compound B4, 2-[[4-[1-(2-fluoroethyl)-4-(4-pyridinyl)-1H-pyrazol-3-yl]phenoxy]methyl]-5-methoxy-pyridine]
147 °C	5.13 nM	–	COc1cccnc1COc1ccc(-c2nn(CC(F)(F)F)cc2-c2ccncc2)cc1 [Compound B9, 3-methoxy-2-[[4-[4-(4-pyridinyl)-1-(2,2,2-trifluoroethyl)-1H-pyrazol-3-yl]phenoxy]methyl]-pyridine]
212.7 °C	100 nM	–	FCCOc1ccc(COc2ccc(-c3nn(CCF)cc3-c3ccncc3)cc2)nc1 [Compound B19, 5-(2-fluoroethoxy)-2-[[4-[1-(2-fluoroethyl)-4-(4-pyridinyl)-1H-pyrazol-3-yl]phenoxy]methyl]-pyridine]
119.2 °C	28.2 nM	–	COc1ccc(Br)c(COc2ccc(-c3nn(CCF)cc3-c3ccncc3)cc2)n1 [Compound B27, 3-bromo-2-[[4-[1-(2-fluoroethyl)-4-(4-pyridinyl)-1H-pyrazol-3-yl]phenoxy]methyl]-6-methoxy-pyridine]

The next lines start with the compound.

SMILES	melting point	IC50 [1]	BP (binding potential) at baseline (PDE10A)
FCCOc1cccnc1COc1ccc(-c2nn(CCF)cc2-c2ccncc2)cc1 (as salt: succinate) [Compound B17, 3-(2-fluoroethoxy)-2-[[4-[1-(2-fluoroethyl)-4-(4-pyridinyl)-1H-pyrazol-3-yl]phenoxy]methyl]pyridine.succinate]	114.18 °C	–	–
COc1cccc(COc2ccc(-c3nn(CCF)cc3-c3ccncc3)cc2)n1 (as salt: succinate) [Compound B24, 2-[[4-[1-(2-fluoroethyl)-4-(4-pyridinyl)-1H-pyrazol-3-yl]phenoxy]methyl]-6-methoxy-pyridine.succinate]	113.25 °C	–	–
Cc1cnc(COc2ccc(-c3nn(CCF)cc3-c3ccncc3)cc2)c(C)c1C (as salt: succinate) [Compound B28, 2-[[4-[1-(2-fluoroethyl)-4-(4-pyridinyl)-1H-pyrazol-3-yl]phenoxy]methyl]-3,4,5-trimethyl-pyridine.succinate]	197.08 °C	–	–
COc1ccc(COc2ccc(-c3nn(CC(F)(F)F)cc3-c3ccncc3)cc2)nc1 [Compound B5, 5-methoxy-2-[[4-[4-(4-pyridinyl)-1-(2,2,2-trifluoroethyl)-1H-pyrazol-3-yl]phenoxy]methyl]-pyridine]	136.3 °C	5.13 nM	–
COc1cccnc1COc1ccc(-c2nn(CCCF)cc2-c2ccncc2)cc1 [Compound B12, 2-[[4-[1-(3-fluoropropyl)-4-(4-pyridinyl)-1H-pyrazol-3-yl]phenoxy]methyl]-3-methoxy-pyridine]	165.9 °C	13.2 nM	–
FCCCn1cc(-c2ccncc2)c(-c2ccc(OCc3ccc(OCCF)cn3)cc2)n1 [Compound B15, 5-(2-fluoroethoxy)-2-[[4-[1-(3-fluoropropyl)-4-(4-pyridinyl)-1H-pyrazol-3-yl]phenoxy]methyl]-pyridine]	206.8 °C	251 nM	–
FCCn1cc(-c2ccncc2)c(-c2ccc(OCc3ccc(Br)cn3)cc2)n1 [Compound B20, 5-bromo-2-[[4-[1-(2-fluoroethyl)-4-(4-pyridinyl)-1H-pyrazol-3-yl]phenoxy]methyl]-pyridine]	125.8 °C	9.55 nM	–
FCCn1cc(-c2ccncc2)c(-c2ccc(OCc3ccc(C(F)(F)F)cn3)cc2)n1 [Compound B22, 2-[[4-[1-(2-fluoroethyl)-4-(4-pyridinyl)-1H-pyrazol-3-yl]phenoxy]methyl]-5-(trifluoromethyl)-pyridine]	133.23 °C	91.2 nM	–
N#Cc1cccc(COc2ccc(-c3nn(CCF)cc3-c3ccncc3)cc2)n1 [Compound B26, 6-[[4-[1-(2-fluoroethyl)-4-(4-pyridinyl)-1H-pyrazol-3-yl]phenoxy]methyl]-2-pyridinecarbonitrile]	148.7 °C	33.1 nM	–
Cc1cnc(COc2ccc(-c3nn(CC[18F])cc3-c3ccncc3)cc2)c(C)c1 [[^18F]B-3]	–	–	4.1
